Laboratory results published in US20100092443A1, “NOVEL COMBINATIONS OF NITROGENATED HETEROCYCLIC ANTIBACTERIAL COMPOUNDS WITH OTHER ANTIBACTERIAL COMPOUNDS AND THE USE OF SAME AS DRUGS” (priority 2008, published 2010).
In brackets after ≈: the same amount, converted by molar mass. Where two headings read alike, the source gives them in different places.

Columns and labels:
C. freundii = assay: MIC, dilutions in liquid medium, alone and combined with NXL105; type: cell-based; details: Citrobacter freundii, read-out: MIC
E. cloacae = assay: as above; type: cell-based; details: Enterobacter cloacae, AmpC, read-out: MIC
Description: (§1) In vitro activity, method of dilutions in liquid medium:
(§2) A series of test 96-well microtiter plates are prepared in which the same quantity of sterile nutritive medium is distributed. […] After 24 h of incubation in a 37° C. oven, growth inhibition is evaluated by transillumination, which makes it possible to determine the minimum inhibitory concentrations (MICS) expressed in μg/ml.

K. pneumoniae = assay: as above; type: cell-based; details: Klebsiella pneumoniae, read-out: MIC
Description: as §1, §2

E. coli = assay: microbe, parasite or virus in culture; type: cell-based; details: Escherichia coli
Description: as §1, §2

K. oxytoca = assay: MIC, dilutions in liquid medium, alone and combined with NXL105; type: cell-based; details: Klebsiella oxytoca, read-out: MIC
E. aerogenes = assay: as above; type: cell-based; details: Klebsiella aerogenes, 24 h; E. aerogenes EAR2; Case-R + FEP-R; read-out: MIC
P. aeruginosa (391 HT2) [1] = assay: MICs in a volume of 10 ml, bactericidal conditions (exponential bacterial growth); type: cell-based, Pseudomonas aeruginosa; details: Pseudomonas aeruginosa
Description: (§3) The minimum inhibitory concentrations (MICs) of the products to be tested (products alone and combinations) are determined in advance. • For each concentration of product to be tested as well as the control stock, an Erlenmeyer flask containing 18.5 ml Muller-Hinton medium (Ca^++) is prepared. • From an overnight culture in broth or a bacterial suspension of OD (optical density)=1, a 1/100 dilution is prepared. • The sample is cultured with agitation for 2 h at 37° C. • OD is measured: if >0.5, the sample is diluted to 1/10. • Each Erlenmeyer flask is inoculated with 1 ml of the agitated culture or its dilution. The initial inoculum should be 1×10^6 CFU/ml. • The various antibiotic solutions are added at a volume of 0.5 ml and 0.5 ml of medium in the control Erlenmeyer flask. • With a volume of 0.1 ml, the control Erlenmeyer flask is numbered=TO. • The flask is incubated at 37° C. with agitation. • At each sampling point (2, 4, 6, 24, 48 hours), a volume of 0.1 ml is sampled from each Erlenmeyer flask and numbered. • Plates for all the numbered samples are incubated (24 h-48 h) at 37° C.
For the bactericidal tests, MICs are determined in a volume of 10 ml-bactericidal conditions (exponential bacterial growth): […]

P. aeruginosa (391 HT2) [2] = assay: MICs determined on microplates; type: cell-based, Pseudomonas aeruginosa; details: Pseudomonas aeruginosa; sensitive strain P. aeruginosa 391 HT2
Description: as §3
Bactericidal activity was evaluated on a sensitive strain of P. aeruginosa (391 HT2)

Q: How did the MIC (C. freundii; 24 h, C. freundii (no alias), AmpC + TEM-1) turn out when `C[C@H]1[C@H](NC(=O)/C(=N\OC(C)(C)C(=O)O)c2csc(N)n2)C(=O)N1S(=O)(=O)O` [Aztreonam] was run?
A: 16 µg/mL

Q: What about the MIC (C. freundii; C. freundii (no alias, table row r121), AmpC) of the same molecule?
A: 8 µg/mL

Q: And the MIC (C. freundii; C. freundii (no alias, table row r122), AmpC)?
A: 32 µg/mL

Q: What about the MIC (C. freundii; C. freundii (no alias, table row r123), AmpC) of the same molecule?
A: 16 µg/mL

Q: And the MIC (C. freundii; C. freundii (no alias, table row r125), AmpC)?
A: 4 µg/mL

Q: And the MIC (E. cloacae; E. cloacae (no alias))?
A: 16 µg/mL

Q: And the MIC (E. cloacae; E. cloacae)?
A: 16 µg/mL

Q: What about the MIC (K. pneumoniae; 24 h, K. pneumoniae 60, SHV-2 + TEM-2 + PER) of the same molecule?
A: 16 µg/mL

Q: And the MIC (K. pneumoniae; 24 h, K. pneumoniae 157, SHV-5 + TEM-26)?
A: 16 µg/mL

Q: And the MIC (K. pneumoniae; 24 h, K. pneumoniae 236, SHV-5 + TEM-10)?
A: 16 µg/mL

Q: What about the MIC (K. pneumoniae; 24 h, K. pneumoniae 253, SHV-2 + TEM-12 + CTX-M-2) of the same molecule?
A: 16 µg/mL

Q: And the MIC (K. pneumoniae; 24 h, K. pneumoniae 427, SHV-1 + TEM-1B + CTX-M-3)?
A: 4 µg/mL

Q: And the MIC (K. pneumoniae; 24 h, K. pneumoniae 441, SHV-1 + TEM-2 + PER)?
A: 16 µg/mL

Q: What about the MIC (K. pneumoniae; 24 h, K. pneumoniae 444, SHV-5 + TEM-2 + PER) of the same molecule?
A: 8 µg/mL

Q: And the MIC (K. pneumoniae; 24 h, K. pneumoniae 1734, FOX-3 + TEM-1)?
A: 8 µg/mL

Q: What about the MIC (K. pneumoniae; 24 h, K. pneumoniae 9701, CMY-4 + TEM-1) of the same molecule?
A: 16 µg/mL

Q: And the MIC (K. pneumoniae; 24 h, K. pneumoniae Patient 1BHR, VIM-4 + CTX-M-15 = CMY-4 + TEM-1)?
A: 16 µg/mL

Q: And the MIC (K. pneumoniae; 24 h, K. pneumoniae SLK54, ACC-1 + TEM-1)?
A: 2 µg/mL

Q: What about the MIC (K. pneumoniae; 24 h, K. pneumoniae TN58467, DHA-1 + SHV-2a + TEM-1) of the same molecule?
A: 16 µg/mL

Q: What about the MIC (K. pneumoniae; ATCC700603, K. pneumoniae ATCC 700603, SHV-18) of the same molecule?
A: 8 µg/mL

Q: And the MIC (K. pneumoniae; K. pneumoniae 26, SHV-5)?
A: 16 µg/mL

Q: And the MIC (K. pneumoniae; K. pneumoniae KP04, CTX-M-14)?
A: 16 µg/mL

Q: What about the MIC (K. pneumoniae; K. pneumoniae VAKP, KPC-2) of the same molecule?
A: 16 µg/mL

Q: And the MIC (E. coli; 24 h, E. coli 2138, KPC-2 + TEM-1)?
A: 32 µg/mL

Q: And the MIC (E. coli; 24 h, E. coli (no alias), CTX-M-15 + TEM-1 + OXA-1)?
A: 4 µg/mL

Q: And the MIC (E. coli; 24 h, E. coli IND, VEB-1 + CMY-2)?
A: > 32 µg/mL

Q: What about the MIC (E. coli; 24 h, E. coli TN06, CTX-M-2 + TEM-1) of the same molecule?
A: 8 µg/mL

Q: What about the MIC (E. coli; 24 h, E. coli TN13, CTX-M-14 + CMY-2 + TEM-1) of the same molecule?
A: 16 µg/mL

Q: And the MIC (E. coli; 24 h, E. coli Tunisie clone E4, CTX-M-16 + TEM-1)?
A: 32 µg/mL

Q: And the MIC (E. coli; E. coli (no alias), Cephalosporinase, read-out: MIC)?
A: 16 µg/mL (≈ 36.7 µM)

Q: And the MIC (E. coli; E. coli (no alias), SHV-4)?
A: 16 µg/mL (≈ 36.7 µM)

Q: And the MIC (E. coli; E. coli (no alias), TEM-3)?
A: 8 µg/mL (≈ 18.4 µM)

Q: And the MIC (K. oxytoca; K. oxytoca 1431, TEM-129)?
A: > 32 µg/mL

Q: What about the MIC (K. oxytoca; K. oxytoca 16944, OXY-2, TEM-1) of the same molecule?
A: 32 µg/mL

Q: And the MIC (E. aerogenes)?
A: 16 µg/mL

Q: Which MIC (P. aeruginosa (391 HT2) [1]) does the source give for `NC[C@H]1O[C@H](O[C@H]2[C@H](O)[C@@H](O[C@H]3O[C@H](CO)[C@@H](O)[C@H](N)[C@H]3O)[C@H](N)C[C@@H]2N)[C@H](N)C[C@@H]1O` [Tobramycin] here?
A: 1 µg/mL

Q: What about the MIC (P. aeruginosa (391 HT2) [2]) of the same molecule?
A: 1 µg/mL

Q: With `O=C(O)c1cn(C2CC2)c2cc(N3CCNCC3)c(F)cc2c1=O` [Ciprofloxacine] as the molecule, how does the MIC (P. aeruginosa (391 HT2) [2]) read?
A: 1 µg/mL
